Where “and” joins values, the source holds several entries; their conditions need not be identical. Identical values can stand only once.
Experiment: Rat PK study #3 (ABBV-744 IV 1 mg/kg and PO 5 mg/kg)
Format: in vivo, SD rats
Design: Tmax: unit: h
Conditions: for concentration at 0.033 h: male, Sprague-Dawley, rat, plasma, iv
Experimental: For the third rat pharmacokinetic study, the pharmacokinetics of ABBV-744 were assessed in male SD rats for comparison to Compound A. ABBV-744 was prepared in a formulation of 5% DMSO, 40% PEG-400, and 55% Milli-Q water (see Table 2D for formulation) and delivered to animals orally (PO) at a dose of 5 mg/kg, or intravenously (IV) at a dose of 1 mg/kg. Animals in each group (n=3) were then monitored over a 24-hour period.
Blood samples (~0.2 mL) were collected according to a schedule (IV administration: 0.033, 0.083, 0.25, 0.5, 1, 2, 4, and 8 h following the initial dosing; PO administration: 0.083, 0.25, 0.5, 1, 2, 4, 8, and 24 h following the initial dosing) by jugular vein by cannulation except for the dosing vein (for IV group), and EDTA-K2 was used as anticoagulant. Within 30 minutes of collection, the samples were centrifuged at approximately 4000 times g-force for 5 minutes at 4° C. to obtain blood plasma. The plasma samples were immediately divided into two aliquots (~75 µL each), transferred to a cryogenic vial, and stored in a freezer at −75±15° C. prior to analysis.
The concentration of ABBV-744 in plasma samples was determined by liquid chromatography-mass spectrometry (LC-MS/MS) using a Shimadzu HPLC(DGU-405; LC-40D XS CN; SIL-40C XSCN; Plate Changer CN; CTO-40C CN; and CBM-40 CN) and an AB API 5500+LC/MS/MS instrument. Samples were analyzed on an Agilent Poroshell Bonus RP 2.7 μm (50×2.1 mm) column. Solution A in the mobile phase was 95% water (0.1% formic acid) and solution B was 95% acetonitrile in water (0.1% formic acid), injection volume was 6 μL, and flow rate was 0.6 mL/min.
To prepare samples for analysis, serial concentrations were prepared by diluting the stock solution of analyte with a 50% acetonitrile in water solution. 5 μL working solutions (5, 10, 20, 50, 100, 500, 1000, 5000, and 10000 ng/mL) were added to 50 μL of the blank SD rat plasma to achieve calibration standards of ~0.5 to 1000 ng/ml (0.5, 1, 2, 5, 10, 50, 100, 500, and 1000 ng/ml) in a total volume of 55 μL. Five quality control samples at 1 ng/ml, 2 ng/ml, 5 ng/ml, 50 ng/mL, and 800 ng/ml for plasma were prepared independently of those used for the calibration curves. These QC samples were prepared on the day of analysis in the same way as calibration standards.
55 μL of standards, 55 μL of QC samples and 55 μL of unknown samples (50 μL of unknown rat plasma with 5 µL of blank solution) were added to 200 µL of acetonitrile containing IS mixture (verapamil) for precipitating protein respectively. The samples were then vortexed for 30 s. After centrifugation at 4° C., 3900 rpm for 15 min, the supernatant was diluted 3 times with water. 6 μL of diluted supernatant was injected into the LC/MS/MS system for quantitative analysis.

[1] = SD rats, IV 1 mg/kg, DMSO/PEG-400/Milli-Q water formulation, individual animals, 1 mg/kg
[2] = SD rats, IV 1 mg/kg, DMSO/PEG-400/Milli-Q water formulation, mean of 3 animals
[3] = SD rats, PO 5 mg/kg, DMSO/PEG-400/Milli-Q water formulation, individual animals, 5 mg/kg

For CCNC(=O)c1cc2c(-c3cc(C(C)(C)O)ccc3Oc3c(C)cc(F)cc3C)cn(C)c(=O)c2[nH]1 [ABBV-744], the “exposure above the free EC50 BD2 BRD4” value (5 mg/kg dose) was “minimal”, the Clinical observations (IV 1 mg/kg and PO 5 mg/kg) was “No clinical observations were noted” and the “Plasma Concentration” value (SD rats, IV 1 mg/kg, DMSO/PEG-400/Milli-Q water formulation, 0.033 h, individual animals, 1 mg/kg) was 484 ng/mL and 489 ng/mL. The “Plasma Concentration” value (SD rats, IV 1 mg/kg, DMSO/PEG-400/Milli-Q water formulation, 0.083 h, individual animals, 1 mg/kg) was 308 ng/mL and 353 ng/mL, the “Plasma Concentration” value (SD rats, IV 1 mg/kg, DMSO/PEG-400/Milli-Q water formulation, 0.25 h, individual animals, 1 mg/kg) was 267 ng/mL and 289 ng/mL and the “Plasma Concentration” value (SD rats, IV 1 mg/kg, DMSO/PEG-400/Milli-Q water formulation, 0.5 h, individual animals, 1 mg/kg) was 217 ng/mL and 202 ng/mL. For the same molecule, the “Plasma Concentration” value (SD rats, IV 1 mg/kg, DMSO/PEG-400/Milli-Q water formulation, 1 h, individual animals, 1 mg/kg) was 147 ng/mL and 158 ng/mL, the “Plasma Concentration” value (SD rats, IV 1 mg/kg, DMSO/PEG-400/Milli-Q water formulation, 2 h, individual animals, 1 mg/kg) was 116 ng/mL and 110 ng/mL and the “Plasma Concentration” value (SD rats, IV 1 mg/kg, DMSO/PEG-400/Milli-Q water formulation, 4 h, individual animals, 1 mg/kg) was 55.9 ng/mL and 54.8 ng/mL. The “Plasma Concentration” value (SD rats, IV 1 mg/kg, DMSO/PEG-400/Milli-Q water formulation, 8 h, individual animals, 1 mg/kg) was 18.3 ng/mL and 15.0 ng/mL, the AUCInf [1] was 750 ng·h/mL and 728 ng·h/mL and the AUC_%Extrap_obs [1] was 5.41% and 8.03% and 6.23%. For the same molecule, the AUClast [1] was 690 ng·h/mL and 683 ng·h/mL, the C0 [1] was 652 ng/mL and 606 ng/mL and the Cl_obs [1] was 24.9 mL/min/kg and 22.2 mL/min/kg and 22.9 mL/min/kg. For the same molecule, the MRTInf_obs [1] was 2.88 h and 2.61 h, the T1/2 [1] was 2.28 h and 2.09 h and the Vss_obs [1] was 3.69 L/kg and 3.84 L/kg and 3.59 L/kg. The AUC_%Extrap_obs [2] was 6.56%, the Cl_obs [2] was 23.3 mL/min/kg and the Vss_obs [2] was 3.71 L/kg. The “Plasma Concentration” value (SD rats, PO 5 mg/kg, DMSO/PEG-400/Milli-Q water formulation, 0.083 h, individual animals, 5 mg/kg) was 0.00 ng/mL and 1.03 ng/mL and 3.81 ng/mL, the “Plasma Concentration” value (SD rats, PO 5 mg/kg, DMSO/PEG-400/Milli-Q water formulation, 0.25 h, individual animals, 5 mg/kg) was 2.95 ng/mL and 6.42 ng/mL and 48.5 ng/mL and the “Plasma Concentration” value (SD rats, PO 5 mg/kg, DMSO/PEG-400/Milli-Q water formulation, 0.5 h, individual animals, 5 mg/kg) was 7.91 ng/mL and 21.1 ng/mL and 100 ng/mL. The “Plasma Concentration” value (SD rats, PO 5 mg/kg, DMSO/PEG-400/Milli-Q water formulation, 1 h, individual animals, 5 mg/kg) was 16.7 ng/mL and 41.0 ng/mL and 118 ng/mL, the “Plasma Concentration” value (SD rats, PO 5 mg/kg, DMSO/PEG-400/Milli-Q water formulation, 2 h, individual animals, 5 mg/kg) was 31.9 ng/mL and 78.0 ng/mL and 157 ng/mL and the “Plasma Concentration” value (SD rats, PO 5 mg/kg, DMSO/PEG-400/Milli-Q water formulation, 4 h, individual animals, 5 mg/kg) was 40.6 ng/mL and 101 ng/mL and 239 ng/mL. The “Plasma Concentration” value (SD rats, PO 5 mg/kg, DMSO/PEG-400/Milli-Q water formulation, 8 h, individual animals, 5 mg/kg) was 54.6 ng/mL and 70.6 ng/mL and 214 ng/mL, the “Plasma Concentration” value (SD rats, PO 5 mg/kg, DMSO/PEG-400/Milli-Q water formulation, 24 h, individual animals, 5 mg/kg) was 0.909 ng/mL and 1.09 ng/mL and 4.52 ng/mL and the AUClast [3] was 739 ng·h/mL and 1175 ng·h/mL and 3265 ng·h/mL. For the same molecule, the Cmax [3] was 54.6 ng/mL and 101 ng/mL and 239 ng/mL, the F [3] was 22.1% and 35.2% and 97.7% and the Tmax [3] was 4.00 h. It also gave an F (SD rats, PO 5 mg/kg, DMSO/PEG-400/Milli-Q water formulation, mean of 3 animals) of 51.7%, a concentration at 0.033 h (1 mg/kg, SD rats, IV 1 mg/kg, DMSO/PEG-400/Milli-Q water formulation, 0.033 h, individual animals) of 475 ng/mL and a concentration at 0.033 h (1 mg/kg, SD rats, IV 1 mg/kg, DMSO/PEG-400/Milli-Q water formulation, 0.033 h, mean of 3 animals) of 483 ng/mL.

Source: patent publication US20260217701A1, “SELECTIVE BET INHIBITORS AND USES THEREOF” (Tay Therapeutics Limited, priority 2022, published 2026)
